Measurements reported in patent US9540357B1, “15-aryl prostaglandins as EP4 agonists, and methods of use thereof” (Allergan, Inc., priority 2014, dated 2017).

Assays:
EP4 [1] = molecular target: T1, EP4 (Homo sapiens (Human), UniProt P35408); assay: cAMP assay, EP4; format: cell-based; settings: HEK-EBNA cells expressing EP4
Description: A 384-well drug plate was prepared to contain 6 test compounds, PGE2 and cAMP in 16 serial dilutions in triplicate, using a Biomek station. HEK-EBNA cells expressing a target PG receptor subtype (EP2 or EP4) were suspended in a stimulation buffer (HBSS, 0.1% BSA, 0.5 mM IBMX and 5 mM HEPES, pH 7.4) in a density of 10^4 cells/5 microliters. The reaction was initiated by mixing 5 microliters drug dilutions with 5 microliters of HEK-EBNA cells in a well, carried out for 30 min at room temperature, and followed by the addition of 5 microliters anti-cAMP acceptor beads in the control buffer with Tween-20 (25 mM NaCl, 0.03% Tween-20, 5 mM HEPES, pH 7.4). After 30 min in the dark at room temperature, the mixtures were incubated with 15 microliters biotinylated-cAMP/streptavidin donor beads in Lysis/Detection buffer (0.1% BSA, 0.3% Tween-20 and 5 mM HEPES, pH 7.4) for 45 min at room temperature. Fluorescence changes were read using a Fusion-alpha microplate reader.

EP2 [2] = molecular target: T2, EP2 (Homo sapiens (Human), UniProt P43116); assay: Competition binding ([3H]PGE2), EP2; settings: HEK 293 cells stably expressing human EP2 receptors, [3H]PGE2 10 nM
T2 sequence (P43116 whole entry): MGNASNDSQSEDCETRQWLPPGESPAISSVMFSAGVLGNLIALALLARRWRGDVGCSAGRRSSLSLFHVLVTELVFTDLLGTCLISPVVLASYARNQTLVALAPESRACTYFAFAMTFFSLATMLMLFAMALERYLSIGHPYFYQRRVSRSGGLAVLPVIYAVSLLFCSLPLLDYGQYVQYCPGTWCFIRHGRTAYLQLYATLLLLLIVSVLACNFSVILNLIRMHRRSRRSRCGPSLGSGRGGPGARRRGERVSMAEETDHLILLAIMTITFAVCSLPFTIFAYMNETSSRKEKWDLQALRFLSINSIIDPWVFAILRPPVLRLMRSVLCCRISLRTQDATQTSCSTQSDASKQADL
Description: Competition binding experiments were performed in a medium containing Hank's balanced salt solution, HEPES 20 mM, pH 7.3, membranes (˜60 μg protein) or 2×10^5 cells from HEK 293 cells stably expressing human EP2 receptors, [^3H]PGE2 (10 nM) and various concentrations of test compounds in a total volume of 300 μl. Reaction mixtures were incubated at 23° C. for 60 min, and were filtered over Whatman GF/B filters under vacuum. Filters were washed three times with 5 ml ice-cold buffer containing 50 mM Tris/HCl (pH 7.3). Non-specific binding was estimated in the presence of excess unlabeled PGE2 (10 μM). Binding data fitted to the binding model for a single class of binding sites, using nonlinear regression analysis. IC50 values thus obtained were converted to Ki using the equation of Ki=(IC50/(1+[L]/KD) where [L] represents PGE2 concentration (10 nM) and KD the dissociation constant for [^3H]PGE2 at human EP2 receptors (40 nM).

EP4 [3] = molecular target: T1, EP4; assay: Competition binding, EP4
EP2 [4] = molecular target: T2, EP2; assay: cAMP assay, EP2; format: cell-based; settings: HEK-EBNA cells expressing EP2
hEP1 = hEP1 (Homo sapiens (Human), UniProt P34995); assay: FLIPR calcium signal, hEP1; format: cell-based; settings: HEK-293(EBNA) cells expressing hEP1
hEP1, sequence (P34995 whole entry): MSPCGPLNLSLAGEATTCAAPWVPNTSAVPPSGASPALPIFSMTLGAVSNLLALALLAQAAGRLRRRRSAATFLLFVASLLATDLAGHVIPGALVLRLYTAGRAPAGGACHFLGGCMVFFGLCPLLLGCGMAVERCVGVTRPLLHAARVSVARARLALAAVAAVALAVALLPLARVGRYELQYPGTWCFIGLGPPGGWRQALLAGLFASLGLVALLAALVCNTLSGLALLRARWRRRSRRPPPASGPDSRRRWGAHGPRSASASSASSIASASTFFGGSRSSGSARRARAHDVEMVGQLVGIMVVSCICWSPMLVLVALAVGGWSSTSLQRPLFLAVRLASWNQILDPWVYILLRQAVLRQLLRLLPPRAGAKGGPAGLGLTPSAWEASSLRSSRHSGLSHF
Description: (§1) HEK-293(EBNA) cells, stably expressing one type or subtype of recombinant human prostaglandin receptors (prostaglandin receptors expressed: hDP/Gqs5; hEP1; hEP2/Gqs5: hEP3A/Gqi5; hEP4/Gqs5; hFP; hIP; hTP), were cultured in 100 mm culture dishes in high-glucose DMEM medium containing 10% fetal bovine serum, 2 mM 1-glutamine, 250 μg/ml geneticin (G418) and 200 microgram/mL hygromycin B as selection markers, and 100 units/ml penicillin G, 100 microgram/mL streptomycin and 0.25 microgram/mL amphotericin B.
(§2) Cells were seeded at a density of 5×10^4 cells per well in Biocoat® Poly-D-lysine-coated black-wall, clear-bottom 96-well plates (Becton-Dickinson) and allowed to attach overnight in an incubator at 37° C. Cells were then washed two times with HBSS-HEPES buffer (Hanks Balanced Salt Solution without bicarbonate and phenol red, 20 mM HEPES, pH 7.4) using a Denley Cellwash plate washer (Labsystems). […]
(§3) Cells were excited with an Argon laser at 488 nm, and emission was measured through a 510-570 nm bandwidth emission filter (FLIPR™, Molecular Devices, Sunnyvale, Calif.). […] The peak increase in fluorescence intensity was recorded for each well. […] The peak fluorescence change in each drug-containing well was then expressed relative to the controls. […]

hDP = hDP (Homo sapiens (Human), UniProt Q13258); assay: FLIPR calcium signal, hDP; format: cell-based; settings: HEK-293(EBNA) cells expressing hDP/Gqs5
hDP, sequence (Q13258 whole entry): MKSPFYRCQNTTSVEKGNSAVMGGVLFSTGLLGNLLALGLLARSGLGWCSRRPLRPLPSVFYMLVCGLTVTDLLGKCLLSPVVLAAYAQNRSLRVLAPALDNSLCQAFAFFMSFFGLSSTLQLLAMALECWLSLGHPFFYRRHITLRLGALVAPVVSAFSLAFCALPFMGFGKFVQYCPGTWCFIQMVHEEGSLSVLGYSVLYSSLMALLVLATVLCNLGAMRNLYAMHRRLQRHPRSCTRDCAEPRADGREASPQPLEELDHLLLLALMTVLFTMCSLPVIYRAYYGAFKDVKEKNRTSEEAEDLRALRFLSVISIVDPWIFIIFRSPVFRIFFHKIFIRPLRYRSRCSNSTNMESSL
Description: as §1, §2, §3

hEP3A = hEP3A (Homo sapiens (Human), UniProt P43115); assay: FLIPR calcium signal, hEP3A; format: cell-based; settings: HEK-293(EBNA) cells expressing hEP3A/Gqi5
hEP3A, sequence (P43115 whole entry): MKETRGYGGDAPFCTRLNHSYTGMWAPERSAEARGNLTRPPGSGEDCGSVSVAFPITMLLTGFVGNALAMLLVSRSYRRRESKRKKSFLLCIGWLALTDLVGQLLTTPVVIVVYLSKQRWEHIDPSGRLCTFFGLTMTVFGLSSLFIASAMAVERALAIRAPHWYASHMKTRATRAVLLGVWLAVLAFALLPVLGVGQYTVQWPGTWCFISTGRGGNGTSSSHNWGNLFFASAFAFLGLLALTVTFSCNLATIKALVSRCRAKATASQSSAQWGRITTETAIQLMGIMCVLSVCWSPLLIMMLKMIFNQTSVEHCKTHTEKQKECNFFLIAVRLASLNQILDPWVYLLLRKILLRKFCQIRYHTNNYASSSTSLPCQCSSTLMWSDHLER
Description: as §1, §2, §3

hTP = hTP (Homo sapiens (Human), UniProt P21731); assay: FLIPR calcium signal, hTP; format: cell-based; settings: HEK-293(EBNA) cells expressing hTP
hTP, sequence (P21731 whole entry): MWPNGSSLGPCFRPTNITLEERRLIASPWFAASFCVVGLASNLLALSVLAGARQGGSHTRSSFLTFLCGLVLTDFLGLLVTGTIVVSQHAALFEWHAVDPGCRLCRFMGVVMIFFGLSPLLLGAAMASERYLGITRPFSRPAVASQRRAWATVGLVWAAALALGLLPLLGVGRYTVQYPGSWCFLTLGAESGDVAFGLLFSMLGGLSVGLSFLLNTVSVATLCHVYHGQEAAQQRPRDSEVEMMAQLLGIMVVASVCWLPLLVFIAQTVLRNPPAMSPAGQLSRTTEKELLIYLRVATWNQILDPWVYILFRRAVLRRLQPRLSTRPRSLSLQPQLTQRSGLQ
Description: as §1, §2, §3

hFP = hFP (Homo sapiens (Human), UniProt P43088); assay: FLIPR calcium signal, hFP; format: cell-based; settings: HEK-293(EBNA) cells expressing hFP
hFP, sequence (P43088 whole entry): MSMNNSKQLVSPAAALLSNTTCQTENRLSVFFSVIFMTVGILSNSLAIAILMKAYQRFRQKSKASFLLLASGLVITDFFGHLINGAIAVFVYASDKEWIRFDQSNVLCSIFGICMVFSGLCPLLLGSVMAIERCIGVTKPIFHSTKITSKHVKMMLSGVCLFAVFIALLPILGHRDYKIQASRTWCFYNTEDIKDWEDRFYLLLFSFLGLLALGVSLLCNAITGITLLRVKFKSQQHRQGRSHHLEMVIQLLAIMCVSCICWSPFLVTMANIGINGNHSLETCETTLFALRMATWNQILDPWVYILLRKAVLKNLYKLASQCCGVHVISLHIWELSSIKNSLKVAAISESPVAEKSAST
Description: as §1, §2, §3

T1 sequence (P35408 whole entry): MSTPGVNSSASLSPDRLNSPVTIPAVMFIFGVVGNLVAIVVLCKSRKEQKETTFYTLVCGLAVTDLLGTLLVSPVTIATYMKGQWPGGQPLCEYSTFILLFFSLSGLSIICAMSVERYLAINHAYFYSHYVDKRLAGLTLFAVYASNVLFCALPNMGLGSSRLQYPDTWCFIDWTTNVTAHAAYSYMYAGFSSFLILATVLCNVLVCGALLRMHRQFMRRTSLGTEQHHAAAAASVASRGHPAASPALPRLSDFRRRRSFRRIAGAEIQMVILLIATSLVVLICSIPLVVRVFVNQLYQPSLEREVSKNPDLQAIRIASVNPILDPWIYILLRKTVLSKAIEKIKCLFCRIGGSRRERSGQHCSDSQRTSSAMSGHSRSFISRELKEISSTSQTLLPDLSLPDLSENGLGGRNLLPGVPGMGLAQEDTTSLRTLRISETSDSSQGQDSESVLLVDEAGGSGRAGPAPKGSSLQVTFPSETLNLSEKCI

Row | EC50 (EP4 [1]) [nM] | Ki (EP2 [2]) [µM] | Ki (EP4 [3]) [nM] | EC50 (EP2 [4]) [nM] | EP2 Ki (EP2 [2]) [µM] | EC50 against hEP1 (hEP1) | EC50 against hDP (hDP) | EC50 against hEP3A (hEP3A) | EC50 against hTP (hTP) | EC50 against hFP (hFP) | Compound | EP4 cAMP EC50 (EP4 [1]) [µM] | EP4 Ki (EP4 [3]) [µM]
1 | 3 |  | 25 |  | > 10 | not active | not active | not active | not active | not active | Cc1cc(O)ccc1-c1cccc(C(O)/C=C/[C@H]2CCC(=O)N2CCCc2ccc(C(=O)O)cc2)c1 (single isomer, unassigned) [Example 10] |  | 
2 | 8 |  | 53 |  | > 10 |  |  |  |  |  | Cc1cc(F)ccc1-c1cccc(C(O)/C=C/[C@H]2CCC(=O)N2CCCc2ccc(C(=O)O)cc2)c1 (stereo partly drawn) [Example 12, 4-(3-{2(R)-[(1E)-3-(4′-fluoro-2′-methylbiphenyl-3-yl)-3-hydroxyprop-1-en-1-yl]-5-oxopyrrolidin-1-yl}propyl)benzoic acid] |  | 
3 | 2 |  | 60 |  | > 10 |  |  |  |  |  | Cc1cc(Cl)cc(C)c1-c1cccc(C(O)/C=C/[C@H]2CCC(=O)N2CCCc2ccc(C(=O)O)cc2)c1 (single isomer, unassigned) [Example 21] |  | 

Continued, compound first:

Row | Compound | EC50 (EP4 [1]) [nM] | Ki (EP2 [2]) [µM] | Ki (EP4 [3]) [nM] | EC50 (EP2 [4]) [nM] | EP2 Ki (EP2 [2]) [µM] | EC50 against hEP1 (hEP1) | EC50 against hDP (hDP) | EC50 against hEP3A (hEP3A) | EC50 against hTP (hTP) | EC50 against hFP (hFP) | EP4 cAMP EC50 (EP4 [1]) [µM] | EP4 Ki (EP4 [3]) [µM]
4 | O=C(O)c1ccc(CCCN2C(=O)CC[C@@H]2/C=C/C(O)c2cccc(Br)c2)cc1 (single isomer, unassigned) [Example 2] | 194 | 7.49 | 1210 | 149 |  |  |  |  |  |  |  | 
5 | Cc1cc(O)ccc1-c1cccc(C(O)/C=C/[C@H]2CCC(=O)N2CCCc2ccc(C(=O)O)cc2)c1 (single isomer, unassigned) [Example 9] | 326 |  | 3320 |  | > 10 | not active | not active | not active | not active | not active |  | 
6 | O=C(O)c1ccc(CCCN2C(=O)CC[C@@H]2/C=C/C(O)c2cccc(-c3ccc(Cl)cc3CO)c2)cc1 (stereo partly drawn) [Example 18, 4-[3-(2(R)-{(1E)-3-[4′-chloro-2′-(hydroxymethyl)biphenyl-3-yl]-3-hydroxyprop-1-en-1-yl}-5-oxopyrrolidin-1-yl)propyl]benzoic acid] |  |  |  |  | > 10 |  |  |  |  |  | > 10 | > 10
7 | Cc1ccccc1-c1cccc(C(O)/C=C/[C@H]2CCC(=O)N2CCCc2ccc(C(=O)O)cc2)c1 (single isomer, unassigned) [Example 8] | 2 |  | 159 |  | > 10 |  |  |  |  |  |  | 
